{
  "source": "ChEMBL document CHEMBL3352058",
  "about": "“Inhibition of microbial β-N-acetylhexosaminidases by 4-deoxy- and galacto-analogues of NAG-thiazoline” (Bioorg Med Chem Lett, 2014)",
  "key": {"[1]": {"assay": "Inhibition of Streptomyces plicatus beta-N-acetylhexosaminidase GH20 using p-nitrophenyl 2-acetamido-2-deoxy-beta-D-glucosaminide substrate at pH 7.0 and 25 degC"}, "[2]": {"assay": "Inhibition of Bacteroides thetaiotaomicron beta-N-acetylglucosaminidase GH84 using p-nitrophenyl 2-acetamido-2-deoxy-beta-D-glucosaminide substrate at pH 7.0 and 25 degC"}, "[3]": {"assay": "Inhibition of Talaromyces flavus beta-N-acetylhexosaminidase GH20 using p-nitrophenyl 2-acetamido-2-deoxy-beta-D-glucosaminide substrate at pH 7.0 and 25 degC"}},
  "data": [
    {"molecule": "CC1=N[C@H]2[C@H](O[C@H](CO)C[C@@H]2O)S1", "values": [
      {"measurement": "Ki", "setting": "[1]", "value": 9900, "unit": "µM"},
      {"measurement": "Ki", "setting": "[2]", "value": 1830, "unit": "µM"},
      {"measurement": "Ki", "setting": "[3]", "value": 1890, "unit": "µM"}
    ]},
    {"molecule": "CC1=N[C@@H]2[C@@H](O)[C@@H](O)[C@@H](CO)O[C@@H]2S1", "values": [
      {"measurement": "Ki", "setting": "[1]", "value": 90.8, "unit": "µM"},
      {"measurement": "Ki", "setting": "[3]", "value": 393, "unit": "µM"}
    ]},
    {"molecule": "CC1=N[C@@H]2[C@@H](O)[C@H](O)[C@@H](CO)O[C@@H]2S1", "values": [
      {"measurement": "Ki", "setting": "[1]", "value": 24, "unit": "µM"},
      {"measurement": "Ki", "setting": "[2]", "value": 0.029, "unit": "µM"},
      {"measurement": "Ki", "setting": "[3]", "value": 42.7, "unit": "µM"}
    ]}
  ]
}
